Test [1] deals with T1, complexes formed by Nanchung and Water witch proteins (Wtrw + Nan) (Drosophila melanogaster, UniProt Q9VHY7+Q9VUD5).
T1 construct: adenoviral co-expression in CHO-K1 cells, fluo-4 calcium FLIPR
T1 sequence (Q9VUD5 1-833): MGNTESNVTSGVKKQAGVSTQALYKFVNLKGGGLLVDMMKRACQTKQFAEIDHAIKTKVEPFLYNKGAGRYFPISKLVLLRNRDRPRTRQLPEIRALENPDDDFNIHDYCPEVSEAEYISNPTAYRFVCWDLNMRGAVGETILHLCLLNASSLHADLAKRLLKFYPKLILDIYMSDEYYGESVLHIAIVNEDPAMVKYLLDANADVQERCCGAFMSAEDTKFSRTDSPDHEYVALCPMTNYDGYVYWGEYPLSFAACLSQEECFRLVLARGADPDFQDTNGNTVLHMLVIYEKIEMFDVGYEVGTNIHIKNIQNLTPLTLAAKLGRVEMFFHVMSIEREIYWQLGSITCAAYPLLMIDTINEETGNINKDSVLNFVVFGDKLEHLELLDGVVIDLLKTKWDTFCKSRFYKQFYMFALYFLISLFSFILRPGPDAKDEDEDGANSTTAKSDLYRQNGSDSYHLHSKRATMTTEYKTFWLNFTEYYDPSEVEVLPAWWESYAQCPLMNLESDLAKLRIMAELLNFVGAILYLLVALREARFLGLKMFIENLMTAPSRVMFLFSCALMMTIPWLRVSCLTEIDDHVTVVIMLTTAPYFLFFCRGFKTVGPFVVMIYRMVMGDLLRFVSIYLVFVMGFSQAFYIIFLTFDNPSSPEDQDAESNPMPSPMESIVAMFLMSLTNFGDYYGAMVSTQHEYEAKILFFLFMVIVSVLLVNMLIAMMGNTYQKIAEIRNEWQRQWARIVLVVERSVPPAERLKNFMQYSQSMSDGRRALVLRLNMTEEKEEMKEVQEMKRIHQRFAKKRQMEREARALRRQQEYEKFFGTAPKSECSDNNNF
T1 sequence (Q9VHY7 1-986): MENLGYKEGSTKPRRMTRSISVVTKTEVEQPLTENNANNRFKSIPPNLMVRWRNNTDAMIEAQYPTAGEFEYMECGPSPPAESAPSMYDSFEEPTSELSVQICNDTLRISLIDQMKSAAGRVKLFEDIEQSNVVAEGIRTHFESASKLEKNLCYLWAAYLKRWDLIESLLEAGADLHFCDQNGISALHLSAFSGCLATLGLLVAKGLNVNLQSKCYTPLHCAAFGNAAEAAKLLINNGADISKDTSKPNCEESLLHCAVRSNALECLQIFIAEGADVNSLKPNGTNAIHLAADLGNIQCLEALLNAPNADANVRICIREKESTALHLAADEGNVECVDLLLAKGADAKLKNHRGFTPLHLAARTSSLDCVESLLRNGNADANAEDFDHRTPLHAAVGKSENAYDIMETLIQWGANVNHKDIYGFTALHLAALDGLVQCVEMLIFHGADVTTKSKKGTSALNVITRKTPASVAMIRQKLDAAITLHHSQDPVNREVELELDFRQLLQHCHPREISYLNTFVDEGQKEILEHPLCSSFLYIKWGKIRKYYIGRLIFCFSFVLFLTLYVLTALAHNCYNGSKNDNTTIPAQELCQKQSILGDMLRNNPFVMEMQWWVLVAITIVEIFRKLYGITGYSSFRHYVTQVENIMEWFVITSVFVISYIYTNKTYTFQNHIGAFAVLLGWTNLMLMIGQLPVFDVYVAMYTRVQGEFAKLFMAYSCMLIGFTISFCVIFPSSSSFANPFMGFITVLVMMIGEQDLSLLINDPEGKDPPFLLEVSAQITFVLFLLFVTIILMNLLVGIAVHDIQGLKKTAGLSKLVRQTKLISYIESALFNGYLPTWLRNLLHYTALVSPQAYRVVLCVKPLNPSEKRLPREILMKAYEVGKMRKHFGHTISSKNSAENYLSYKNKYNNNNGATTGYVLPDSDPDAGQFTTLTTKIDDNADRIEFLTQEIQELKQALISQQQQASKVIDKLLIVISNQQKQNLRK
Description: Calcium mobilization (fluo-4AM, FLIPR-TETRA) in CHO-K1 cells co-expressing Water witch and Nanchung. The test is classed as cell-based. A general note: A change in cytosolic calcium serves as a functional read-out for many receptors and channels.

In test [2] the target is T2, complexes formed by Nanchung protein and Inactive protein (Nan + Iav) (Drosophila melanogaster, UniProt Q9VUD5+Q9W3W0).
T2 construct: full-length Iav C-terminally fused to FLAG tags and AcGFP; adenoviral co-expression in CHO-K1, membranes; [3H]-afidopyropen tracer
T2 sequence (Q9VUD5 1-833): T1 sequence (Q9VUD5 1-833)
T2 sequence (Q9W3W0 1-1123): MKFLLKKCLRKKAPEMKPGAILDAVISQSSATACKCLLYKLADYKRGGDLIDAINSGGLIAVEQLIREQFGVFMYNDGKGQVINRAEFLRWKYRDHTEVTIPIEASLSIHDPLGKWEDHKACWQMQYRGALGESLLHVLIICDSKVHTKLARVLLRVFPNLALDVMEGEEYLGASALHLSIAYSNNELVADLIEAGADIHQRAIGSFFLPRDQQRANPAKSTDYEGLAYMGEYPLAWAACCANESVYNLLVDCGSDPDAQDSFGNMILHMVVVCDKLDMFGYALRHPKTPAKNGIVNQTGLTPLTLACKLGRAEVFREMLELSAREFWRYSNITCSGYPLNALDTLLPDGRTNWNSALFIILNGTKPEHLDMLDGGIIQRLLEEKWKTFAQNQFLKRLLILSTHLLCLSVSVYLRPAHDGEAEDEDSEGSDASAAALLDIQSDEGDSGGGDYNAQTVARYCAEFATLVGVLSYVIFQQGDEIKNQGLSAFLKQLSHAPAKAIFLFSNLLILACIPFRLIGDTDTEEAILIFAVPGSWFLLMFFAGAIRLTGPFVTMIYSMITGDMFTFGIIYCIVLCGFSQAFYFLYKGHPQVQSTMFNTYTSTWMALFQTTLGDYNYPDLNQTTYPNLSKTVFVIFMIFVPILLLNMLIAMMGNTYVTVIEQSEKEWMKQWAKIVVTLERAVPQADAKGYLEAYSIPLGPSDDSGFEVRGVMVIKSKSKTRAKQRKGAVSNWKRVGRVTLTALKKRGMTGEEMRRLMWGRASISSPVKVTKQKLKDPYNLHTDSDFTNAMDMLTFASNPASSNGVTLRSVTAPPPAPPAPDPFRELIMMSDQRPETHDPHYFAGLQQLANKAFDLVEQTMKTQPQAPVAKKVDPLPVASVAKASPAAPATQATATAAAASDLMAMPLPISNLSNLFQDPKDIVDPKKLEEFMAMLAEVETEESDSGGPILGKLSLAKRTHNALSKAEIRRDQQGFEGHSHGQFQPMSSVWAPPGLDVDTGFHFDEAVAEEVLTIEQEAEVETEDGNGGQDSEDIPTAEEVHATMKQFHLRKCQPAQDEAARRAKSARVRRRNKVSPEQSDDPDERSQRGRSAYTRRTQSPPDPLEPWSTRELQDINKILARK
Description: Competition binding with [3H]-afidopyropen to membranes from CHO-K1 cells co-expressing Nanchung and Inactive. The conditions noted are these: FIG. 6, [3H]-afidopyropen displacement, Nan (SEQ ID NO 7) C-terminal HA/mCherry, Iav (NP_572353) C-terminal FLAG/AcGFP, pH 7.4, 3 h room temperature, Cheng-Prusoff, read-out: Nan + Iav (Nanchung:Inactive complex) Ki.

Test [3] deals with T3, complexes formed by Nanchung protein and Water witch protein (Nan + Wtrw) (Drosophila melanogaster, UniProt Q9VHY7+Q9VUD5).
T3 construct: adenoviral co-expression in CHO-K1, membranes; [3H]-afidopyropen tracer
T3 sequence (Q9VUD5 1-833): T1 sequence (Q9VUD5 1-833)
T3 sequence (Q9VHY7 1-986): T1 sequence (Q9VHY7 1-986)
Description: Competition binding with [3H]-afidopyropen to membranes from CHO-K1 cells co-expressing Nanchung and Water witch. The conditions noted are these: FIG. 6, [3H]-afidopyropen displacement, Nan (SEQ ID NO 7) C-terminal HA/mCherry, Wtrw (SEQ ID NO 63) C-terminal FLAG/AcGFP, pH 7.4, 3 h room temperature, Cheng-Prusoff, read-out: Nan + Wtrw (Nanchung:Water witch complex) Ki.

Test [4] deals with complexes formed by Nanchung protein and Water witch protein (Nan + Wtrw) (Drosophila melanogaster, UniProt A0ACM8PYI9). Put plainly: biochemical. The test is classed as binding.
In another test the test system is Nanchung (Nan). The conditions noted are these: previously shown; cited from earlier work.
Test [5] has as its system Water witch (Wtrw) protein alone. Description: [3H]-afidopyropen saturation binding to membranes expressing Water witch alone. Further details: species or system Drosophila melanogaster.
The subject of test [6] is Nanchung and Water witch (Nan + Wtrw) complexes. Description: Calcium mobilization (fluo-4, FLIPR) in CHO-K1 cells co-expressing Nanchung and Water witch. The conditions noted are these: CHO-K1 cells co-expressing Nanchung and Water witch.
Description: DNAs encoding for tagged TRP channels were delivered into CHO-K1 cells using adenoviruses. Adenovirus-mediated gene delivery allowed for expression of the gene of interest, optimize expression levels and stoichiometry of subunits, as well as prevention of possible toxic effects of insect TRP channels by maintaining virus-infected cells at room temperature.
To test the hypothesis that Water witch may also be involved in the action of PM and AP, Water witch was expressed in CHO-K1 cells either alone or in combination with Nanchung. Given that TRP channels are permeable for Ca2+, cell responces were measured by monitoring Ca2+ mobilization using Ca2+ sensitive fluorescent probe FLUO4.
Hamster CHO-K1 cells (ATCC ® CCL-61TM) were infected with adenoviruses expressing TRP channels individually or in combinations. The cells were kept overnight at 37° C., followed by 3 days at 25° C. The medium was changed two days after seeding. Calcium mobilization was detected using fluorescent calcium probe fluo-4AM (Life Technologies) and measured by FLIPR-TETRA instrument (Molecular Devices, Sunnyvale, CA). The cells were loaded with 50 µl of Hank’s buffered salt solution (HBSS) containing 4 µM fluo-4AM, 5 mM probenecid, 20 mM CaCl2, and 0.02% pluoronic for 2 hours at 25° C. The dye was then discarded, 50 µl of HBSS were added. The test compounds were dissolved in DMSO and added to the cells in 50 µl HBSS, yielding a final DMSO concentration of 0.2%. Fluorescence was monitored for 10 minutes at 1 second intervals at 470-495 nm/515-575 nm excitation/emission wavelengths. EC50 values were calculated using GraphPad Prism (GraphPad Software).
For test [7], the target named is Nanchung (Nan) protein alone (Drosophila melanogaster, UniProt A0ACM8PYI9). Description: [3H]-afidopyropen saturation binding to membranes of CHO-K1 cells expressing Nanchung alone. The conditions noted are these: membranes from CHO-K1 cells expressing Nanchung individually; read-out: Kd, specific binding of tritium-labeled afidopyropen.
In test [8] the target is T4, Drosophila melanogaster Water witch fused at its carboxyl terminus with FLAG tags and AcGFP fluorescent … (Drosophila melanogaster).
T4 construct: TRPA channel subunit expressed in hamster CHO-K1 cells by adenovirus; also called Wtrw-FLAG; FLAG-tagged Water witch; not shown: FLAG tags and AcGFP fused in-frame at the carboxyl terminus
T4 chain: T1 sequence (Q9VHY7 1-986)
Description: co-immunoprecipitation from lysates of adenovirus-transduced CHO-K1 cells; anti-FLAG M2 affinity gel, Western blot with anti-HA. (In general: In western blotting, separated proteins are transferred to a membrane and probed.)

The values that follow come from patent US20230176038A1, “Methods for Identifying Modulators of Insect Transient Receptor Potential Channels” (BASF Corporation, priority 2019, published 2023).

Where two headings read alike, the source gives them in different places.

As usually defined, the EC50 is the concentration that produces a half-maximal response. Turning to `C[C@]1(COC(=O)C2CC2)[C@@H]2C[C@H](O)[C@@]3(C)Oc4cc(-c5cccnc5)oc(=O)c4[C@H](O)[C@@H]3[C@@]2(C)CC[C@@H]1OC(=O)C1CC1` [AP, afidopyropen], in test [1] (FIG. 2B, hamster CHO-K1 cells, adenovirus, Wtrw (SEQ ID NO 63) C-terminal FLAG/AcGFP, Nan (SEQ ID NO 7) C-terminal HA/mCherry, fluo-4AM, 20 mM CaCl2, 0.2% DMSO, 10 min, read-out: Wtrw + Nan (Water witch:Nanchung complex) EC50 (calcium response)), the EC50 turned out to be 39 nM.

What is called Ki is the equilibrium dissociation constant of an inhibitor or competing ligand from its target. As to `CC1=NNC(=O)N(/N=C/c2cccnc2)C1` [Pymetrozine, pymetrozine], the Ki was determined as 43 nM in test [2] and 102 nM in test [3]. Also, the EC50 in test [1] is 96 nM.

What is called Kd is the concentration at which binding is half-saturated. Take `C[C@]1(COC(=O)C2CC2)[C@@H]2C[C@H](O)[C@@]3(C)Oc4cc(-c5cccnc5)oc(=O)c4[C@H](O)[C@@H]3[C@@]2(C)CC[C@@H]1OC(=O)C1CC1` [afidopyropen]: the values for the Kd in test [4] and in test [7] were 0.048 nM and 4.5 nM, respectively. Moreover, in the test with Nanchung (Nan), the “Response of Nanchung alone to stimulation” value was “does not respond”. The “Binding of tritiated afidopyropen” value in test [5] is “negligible”. In addition, the “Ca2+ mobilization response” value in test [6] is on record as “elicited calcium mobilization”.

B1: Drosophila melanogaster Nanchung fused at its carboxyl terminus with HA tags and mCherry fluorescent protein (other)
chain: T1 sequence (Q9VUD5 1-833)
notes: TRPV channel subunit expressed in hamster CHO-K1 cells by adenovirus; For the co-immunoprecipitation the cells were lysed in Triton X-100 buffer; also called Nan-HA; HA-tagged Nanchung; not shown: HA tags and mCherry fused in-frame at the carboxyl terminus
In the case of B1, the binding result in test [8] was “binds”.
